# Experimental data as given in patent US20120093735A1, “COMPLEX COMPOUND AND MRI PROBE MADE OF SAME” (priority 2005, published 2012).
# What was measured:
# Type in all cases: physicochemical
# [1] = Relaxivity R1 of KMR-K001 depending on abundance of ions; conditions: KCl vs CaCl2, MgCl2, FeCl3; 0.05M Tris/HCl pH 7.4, 0.47 T, 40° C.
# Description: Solutions of KMR-K001 (1.0 mM) and KCl (0, 0.01, 0.1, 0.3, 0.6, 0.9, 1.2, 1.5, 1.8, 2.4, 3.0, 10, 30. 100 mM) in 0.05M Tris/HCl buffer, pH 7.4, were prepared in an amount of 2 mL, respectively. Each solution was measured for the longitudinal relaxation time T1 three times using NMS 120 Minispec NMR ANALYZER (0.47 T, 40° C., IR pulse). Then each solution was sequentially diluted to attain KMR-K001 concentrations of 0.9 mM and 0.8 mM, respectively, and the longitudinal relaxation time T1 was measured therefor. By taking [KMR-K001] along the abscissa and taking 1/T1 along the ordinate, relaxivity R1 was determined from the slope. Measurements of the longitudinal relaxation time were carried out in the same manner using CaCl2, MgCl2 or FeCl3.
# [2] = Relaxivity R1 of KMR-K001 in the presence of zinc ion; conditions: 0.05M Tris/HCl pH 7.4, 0.47 T, 40° C.; gadolinium ion liberated by ligand exchange
# [3] = Relaxivity R1 of KMR-Ca001 depending on abundance of ions; conditions: CaCl2 vs NaCl, MgCl2, FeCl3; 0.05M Tris/HCl pH 7.4, 0.47 T, 40° C.
# Description: (§1) Solutions of KMR-Ca001 (0.6 mM) and CaCl2 (0, 0.01, 0.1, 0.2, 0.3, 0.4, 0.5, 0.6, 0.7, 0.8, 1.0, 1.2, 3.0, 10, 30, 100mM) in 0.05M Tris/HCl buffer, pH 7.4, were prepared in an amount of 2 mL, respectively. Each solution was measured for the longitudinal relaxation time T1 three times using NMS 120 Minispec NMR ANALYZER (0.47 T, 40° C., IR pulse). Then each solution was sequentially diluted to attain […] concentrations of 0.45 mM and 0.35 mM, respectively, and the longitudinal relaxation time T1 was measured therefor in the same manner. By taking [KMR-Ca001] along the abscissa and taking 1/T1 along the ordinate, relaxivity R1 was determined from the slope. Measurements of the longitudinal relaxation time were carried out in the same manner using NaCl, MgCl2 or FeCl3.
# [4] = Relaxivity R1 of KMR-Ca001 in the presence of iron ion; conditions: 0.05M Tris/HCl pH 7.4, 0.47 T, 40° C.; iron ion per se has relaxing capability
# Description: as §1
# [5] = T1-weighted images of KMR-Ca001 solutions (1.5T MR scanner); conditions: 0.05M Tris/HCl pH 7.4, 1.5T
# Description: Water, solutions containing KMR-Ca001 alone at concentrations of 0.1, 0.3, 0.6, 1.0 and 3.0 mM, respectively, and solutions containing 0.3 mM KMR-Ca001 and CaCl2 at concentrations of 0.5, 0.6, 0.8, 1.0, 10.0, 20.0, 50.0, 80.0 mM, respectively, in 0.05M Tris/HCl buffer, pH 7.4, were prepared, and placed in glass tubes, respectively. These glass tubes were stood on agar contained in a Tupperware, and T1-weighted images were obtained by T1-weighted GRE using a 1.5T MR scanner (Signa Horzon LX, produced by GE Yokogawa Medical Systems).
# As a result, as KMR-Ca001 increased, the T1-weighted images became whiter, so that it was confirmed that KMR-Ca001 functioned and effective as an MRI contrast agent. The T1-weighted images of the solutions containing 0.3 mM KMR-Ca001 to which calcium ion was added, as the calcium ion increases, coordination of water to gadolinium ion was more inhibited, so that T1-weighted image became darker. By this, it was confirmed that KMR-Ca001 is an MRI contrast agent which responds to calcium ion concentration.
Substance,ion selectivity of relaxivity R1 response [1],change of relaxivity in the presence of zinc ion [2],ion selectivity of relaxivity R1 response [3],change of relaxivity in the presence of iron ion [4],T1-weighted image change with increasing calcium ion ([5]; 0.3 mM KMR-Ca001 with CaCl2 0.5-80.0 mM),T1-weighted image change with increasing probe concentration ([5]; KMR-Ca001 alone 0.1-3.0 mM)
[bis-(2-{[(2-carboxy-(benzo-15-crown-5)-ethylcarbamoyl)-methyl]-carboxymethyl-amino}-ethyl)-amino]-acetic acid gadolinium complex [KMR-K001],selectively responds to potassium ion,the relaxivity is sharply increased,–,–,–,–
{bis-[2-({[3-(bis-carboxymethyl-amino)-4-methoxy-phenylcarbamoyl]-methyl}-carboxymethyl-amino)-ethyl]-amino}-acetic acid gadolinium complex [KMR-Ca001],–,–,selectively responds to calcium ion,the relaxivity is sharply increased,became darker,became whiter
